Values of other authors as cited in patent US6718687B2 (priority 2002, dated 2004).

Tested on: mosquitoes

For C=CC(O)CCCCC (centres unmarked) [Octenol, 1-octen-3-oL], the “results from traps baited with Octenol and CO2 compared with CO2 alone” value (Octenol and CO2 versus CO2 alone) is listed as “not significant” and the “effectiveness as attractant for mosquitoes” value (Octenol at the release rate tested, unless CO2 was also used) is listed as “not an effective attractant”.
